From patent EP0558321A1 (priority 1992, dated 1993)
Counter-ions that a name gives are not always drawn. Like-named read-outs stand apart in the source and are kept apart here.

Columns and labels:
influenza B virus = details: prior art statement; cited from earlier work
influenza A virus = details: prior art statement; cited from earlier work
HSV-1 (Miyama strain) = assay: microbe, parasite or virus in culture; type: cell-based, herpes simplex virus type 1
herpes virus = details: from "J. Gen. Virol.", 67, pp. 1115-1122 (1986); cited from earlier work
influenza virus [1] = details: from "Acta Virol.", 28, pp. 501-507 (1984); cited from earlier work
influenza virus [2] = details: prior art statement; clinical efficacy not yet verified; cited from earlier work
[3] = test system: influenza virus (A/PR/8 strain); assay: microbe, parasite or virus in culture; type: cell-based; details: unidentified influenza virus, PR/8, MDCK, read-out: Antiviral Activitiy (ΔTCID₅₀)(log₁₀)
[4] = Human alphaherpesvirus 1, GMK, read-out: Antiviral Activity (ΔTCID₅₀)(log₁₀), compound concentration 5 µg/ml, GMK cells
[5] = Human alphaherpesvirus 1, GMK, read-out: Antiviral Activity (ΔTCID₅₀)(log₁₀), compound concentration 10 µg/ml, GMK cells
[6] = Human alphaherpesvirus 1, GMK, read-out: Antiviral Activity (ΔTCID₅₀)(log₁₀)
[7] = Human alphaherpesvirus 1, GMK, read-out: Antiviral Activity (ΔTCID₅₀)(log₁₀), compound concentration 20 µg/ml, GMK cells
[8] = compound concentration 10 µg/ml, GMK cells
[9] = compound concentration 50 µg/ml, GMK cells

Molecule	log reduction at 10 µg/mL (HSV-1 (Miyama strain); [5])	cytotoxicity (GMK cells)	log reduction at 5 µg/mL [3]	log reduction at 10 µg/mL [3]	further results
NC12CC3CC(CC(C3)C1)C2 [Amantadine]					efficacy against influenza B virus (influenza B virus): not against influenza B virus; efficacy against influenza A virus (influenza A virus): efficacious against influenza A virus
OC(c1ccc(F)cc1)(C1C2CC3CC(C2)CC1C3)C12CCCN1CCC2 (centres unmarked) [Prep. Ex. 11, 1-(1-azabicyclo[3.3.0]octan-5-yl)-1-(4-fluoropheyl)-1-(2-tricyclo [3.3.1.1^3.7]decyl)methan-1-ol hydrochloride]					Antiviral Activity (ΔTCID₅₀)(log₁₀) (HSV-1 (Miyama strain); compound concentration 5 µg/ml, GMK cells, hydrochloride): 0.00 (-) log₁₀
OC(CCN1CCCCC1)(c1ccccc1)C1C2CC3C(C2)C31 (centres unmarked) [Norakin]					anti-viral activity against herpes virus (herpes virus): lack in anti-viral activity against herpes virus; anti influenza virus action (influenza virus [1]): confirmed to have an anti influenza virus action
OC(c1ccc2ccccc2c1)(C1C2CC3CC(C2)CC1C3)C12CCCN1CCC2 (centres unmarked) [Prep. Ex. 9, 1-(1-azabicyclo[3.3.0]octan-5-yl)-1-(2-naphthyl)-1-(2-tricyclo [3.3.1.1^3.7]decyl)methan-1-ol]	2.17	2.17 (-)			log reduction at 5 µg/mL (HSV-1 (Miyama strain); [4]): 1.17
N#C[N-]c1nncs1.[Na+] [LY253963]					activity against influenza virus in animal tests (influenza virus [2]): resistant to influenza virus in animal tests
CC(=O)c1ccc(C(O)(C2C3CC4CC(C3)CC2C4)C23CCCN2CCC3)cc1 (centres unmarked) [Prep. Ex. 32, 1-(4-acetylphenyl)-1-(1-azabicyclo[3.3.0]octan-5-yl)-1-(2-tricyclo[3.3.1.1³^.7]decyl)methan-1-ol hydrochloride]	0.33	0.33 (+)	0.5	1	log reduction at 20 µg/mL [3]: 1.16
CC(N)C12CC3CC(CC(C3)C1)C2 (centres unmarked) [remantadine, Remantadine]					efficacy against influenza B virus (influenza B virus): not against influenza B virus; efficacy against influenza A virus (influenza A virus): efficacious against influenza A virus
OC(c1ccccc1)(C1C2CC3CC(C2)CC1C3)C12CCCN1CCC2 (centres unmarked) [Prep. Ex. 8, 1-(1-azabicyclo[3.3.0]octan-5-yl)-1-phenyl-1-(2-tricyclo[3.3. 1.1^3.7]decyl)methan-1-ol]				0.67	log reduction at 5 µg/mL (HSV-1 (Miyama strain); [6]): 0.5; log reduction at 10 µg/mL (HSV-1 (Miyama strain); [6]): 0.66; log reduction at 20 µg/mL (HSV-1 (Miyama strain); [6]): 2.66; log reduction at 20 µg/mL [3]: > 3.5
OC(c1ccc(C(F)(F)F)cc1)(C1C2CC3CC(C2)CC1C3)C12CCCN1CCC2 (centres unmarked) [Prep. Ex. 17, 1-(1-azabicyclo[3.3.0]octan-5-yl)-1-(4-trifluoromethylphenyl)-1-(2-tricyclo[3.3.1.1³^.7]decyl)methan-1-ol hydrochloride]	0.33	0.33 (-)	0.33	0.33	log reduction at 20 µg/mL (HSV-1 (Miyama strain); [7]): 0.33; log reduction at 20 µg/mL [3]: 0.33
OC(CCN1CCCCC1)(c1ccccc1)C1C2CC3C(C2)C31 (stereo not drawn) [Prep. Ex. 1, (1R*)-1-phenyl-3-piperidino-1-((3'S*)-3-tricyclo[2.2.1.0]heptyl)propan-1-ol hydrochloride]	0.83			0.44	log reduction at 50 µg/mL (HSV-1 (Miyama strain); Human alphaherpesvirus 1, GMK, read-out: Antiviral Activity (ΔTCID₅₀)(log₁₀), compound concentration 50 µg/ml, GMK cells): > 3; log reduction at 20 µg/mL [3]: > 3.17
(1R*)-1-(1-azabicyclo[3.3.0]octan-5-yl)-1-phenyl-1-((3'R*)-3-tricyclo[2.2.1.0]heptyl)methanol hydrochloride [Prep. Ex. 4]					Antiviral Activity (ΔTCID₅₀)(log₁₀) (HSV-1 (Miyama strain); [8]): 0.66 (-) log₁₀; Antiviral Activity (ΔTCID₅₀)(log₁₀) (HSV-1 (Miyama strain); [9]): 1.33 (±) log₁₀
CN(C)c1ccc(C(O)(C2C3CC4CC(C3)CC2C4)C23CCCN2CCC3)cc1 (centres unmarked) [Prep. Ex. 13, 1-(1-azabicyclo[3.3.0]octan-5-yl)-1-(4-dimethylaminophenyl)-1-(2-tricyclo[3.3.1.1^3.7]decyl)methan-1-ol dihydrochloride]	0.77			0.17	log reduction at 20 µg/mL (HSV-1 (Miyama strain); [7]): 3; cytotoxicity (MDCK cells): 0.17 (+)
(1R*)-1-phenyl-3-piperidino-1-((3'R*)-3-tricyclo[2.2.1.0] heptyl)propan-1-ol hydrochloride [Prep. Ex. 2]					Antiviral Activity (ΔTCID₅₀)(log₁₀) (HSV-1 (Miyama strain); [8]): 0.17 (-) log₁₀; Antiviral Activity (ΔTCID₅₀)(log₁₀) (HSV-1 (Miyama strain); [9]): >3.00 (+) log₁₀
COc1ccccc1C(O)(C1C2CC3CC(C2)CC1C3)C12CCCN1CCC2 (centres unmarked) [Prep. Ex. 23, 1-(1-azabicyclo[3.3.0]octan-5-yl)-1-(2-methoxyphenyl)-1-(2-tricyclo[3.3.1.1^3.7]decyl)methan-1-ol hydrochloride]	0.17	0.17 (+)			
CC1(c2ccc(C(O)(C3C4CC5CC(C4)CC3C5)C34CCCN3CCC4)cc2)OCCS1 (centres unmarked) [Prep. Ex. 30, 1-(1-azabicyclo[3.3.0]octan-5-yl)-1-(4-(2-methyl-1,3-thioxolane-2-yl)phenyl)-1-(2-tricyclo[3.3.1.1^3.7]decyl)methan-1-ol]	> 3.17	>3.17 (+)	> 3	> 3	cytotoxicity (MDCK cells): >3.00 (+)
OC(c1ccc(F)cc1)(C1C2CC3CC(C2)CC1C3)C12CCCN1CCC2 (centres unmarked) [Prep. Ex. 10, 1-(1-azabicyclo[3.3.0]octan-5-yl)-1-(4-fluoropheyl)-1-(2-tricyclo [3.3.1.1^3.7]decyl)methan-1-ol]	1.17		2	> 3.17	Antiviral Activity (ΔTCID₅₀)(log₁₀) (HSV-1 (Miyama strain); compound concentration 5 µg/ml, GMK cells): 0.83 (-) log₁₀
OC(c1cccc(C(F)(F)F)c1)(C1C2CC3CC(C2)CC1C3)C12CCCN1CCC2 (centres unmarked) [Prep. Ex. 21, 1-(1-azabicyclo[3.3.0]octan-5-yl)-1-(3-trifluoromethylphenyl)-1-(2-tricyclo[3.3.1.1^3.7]decyl)methan-1-ol hydrochloride]	0.33		0	0.27	log reduction at 5 µg/mL (HSV-1 (Miyama strain); [4]): 0.5
COc1cccc(C(O)(C2C3CC4CC(C3)CC2C4)C23CCCN2CCC3)c1 (centres unmarked) [Prep. Ex. 19, 1-(1-azabicyclo[3.3.0]octan-5-yl)-1-(3-methoxyphenyl)-1-(2-tricyclo[3.3.1.1³^.7]decyl)methan-1-ol hydrochloride]	0		0	0.17	log reduction at 20 µg/mL (HSV-1 (Miyama strain); [7]): > 2; log reduction at 20 µg/mL [3]: > 3.17
OC(c1ccccc1)(C1C2CC3C(C2)C31)C12CCCN1CCC2 (stereo not drawn) [Prep. Ex. 3, (1R*)-1-(1-azabicyclo[3.3.0]octan-5-yl)1-phenyl-1-[(3'S*)-3-tricyclo[2.2.1.0]heptyl]methan-1-ol hydrochloride]					Antiviral Activity (ΔTCID₅₀)(log₁₀) (HSV-1 (Miyama strain); [8]): 0.00 (-) log₁₀; Antiviral Activity (ΔTCID₅₀)(log₁₀) (HSV-1 (Miyama strain); [9]): >3.00 (-) log₁₀
OC(c1ccc(-c2ccccc2)cc1)(C1C2CC3CC(C2)CC1C3)C12CCCN1CCC2 (centres unmarked) [Prep. Ex. 29, 1-(1-azabicyclo[3.3.0]octan-5-yl)-1-(4-biphenyl)-1-(2-tricyclo[3.3.1.1^3.7]decyl)methan-1-ol hydrochloride]	> 3.17	>3.17 (+)	> 3	> 3	cytotoxicity (MDCK cells): >3.00 (+)
OC(CCN1CCCCC1)(c1ccccc1)C1CC2C=CC1C2 (centres unmarked) [Akineton]					anti influenza virus action (influenza virus [1]): confirmed to have an anti influenza virus action
Cc1ccccc1C(O)(C1C2CC3CC(C2)CC1C3)C12CCCN1CCC2 (centres unmarked) [Prep. Ex. 25, 1-(1-azabicyclo[3.3.0]octan-5-yl)-1-(2-methylphenyl)-1-(2-tricyclo[3.3.1.1^3.7]decyl)methan-1-ol hydrochloride]	> 3	>3.00 (+)			
CC(C(O)(c1ccccc1)C1C2CC3C(C2)C31)C12CCCN1CCC2 (centres unmarked) [Prep. Ex. 6, 2-(1-azabicyclo[3.3.0]octan-5-yl)-1-phenyl-1-(3-tricyclo [2.2.1.0]heptyl)propan-1-ol]					Antiviral Activity (ΔTCID₅₀)(log₁₀) (HSV-1 (Miyama strain); [8]): 1.00 (±) log₁₀
Cc1ccc(C(O)(C2C3CC4CC(C3)CC2C4)C23CCCN2CCC3)cc1 (centres unmarked) [Prep. Ex. 27, 1-(1-azabicyclo[3.3.0]octan-5-yl)-1-(4-methylphenyl)-1-(2-tricyclo-[3.3.1.1^3.7]decyl)methan-1-ol hydrochloride]	2.17		0.17	0.17	log reduction at 20 µg/mL (HSV-1 (Miyama strain); [7]): > 3; log reduction at 20 µg/mL [3]: 2.17
COc1ccc(C(O)(C2C3CC4CC(C3)CC2C4)C23CCCN2CCC3)cc1 (centres unmarked) [Prep. Ex. 15, 1-(1-azabicyclo[3.3.0]octan-5-yl)-1-(4-methoxyphenyl)-1-(2-tricyclo[3.3.1.1^3.7]decyl)methan-1-ol hydrochloride]	0.67	0.67 (-)	0	> 2.17	log reduction at 20 µg/mL [3]: > 3.5
